Measurements from patent US11679107B2 (Eisai R&D Management Co., Ltd., priority 2018, dated 2023).
Like-named read-outs stand apart in the source and are kept apart here.

How the values were obtained:
[1] = test system: Ad2 variant pre-mRNAs spliced in HeLa S3 nuclear extracts; assay: In vitro splicing assay (IVS), RT-qPCR of spliced product; assay type: biochemical; conditions: for IC50: geometric mean; for Ratio Ad2.1/2.2: ratio of IVS IC50 Ad2.1 to Ad2.2
In short: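 Read-out is one-step TaqMan RT-qPCR of spliced Ad2 mRNA with Ftz as reference, normalized to DMSO and fit by non-linear regression. Reactions held HeLa S3 nuclear extract, 2 ng Ad2-derived pre-mRNA and test compound, with 15 min preincubation. Splicing was started with ATP-containing activation buffer and run 90 min at 30 °C.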

[2] = test system: Panc 05.04 cells (SF3b K700E mutant); assay: Cell proliferation and viability, CellTiter-Glo, 72 hours; assay type: cell-based; conditions: for GI50: geometric mean
In short: (§1)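 ATP luminescence (CellTiter-Glo) was measured 72 h after treatment with compound at 10 μM–100 pM (11 points, half-log) in 0.1% DMSO. The Panc line was grown in RPMI-1640 plus insulin and 15% FBS, the other in 10% FBS. Data were normalised to time zero and vehicle controls, where −100% is cidal and 0% static.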

[3] = test system: NCI-H1568 cells (high MCL1); assay: as above; assay type: cell-based; conditions: for GI50: geometric mean
In short: as §1

[4] = target: T1, SF3b complexes (Homo sapiens, UniProt O75533+Q7RTV0); assay: Scintillation proximity assay (SPA) with [3H]-labelled pladienolide probe; assay type: binding; conditions: SF3B1 (WT); geometric mean; read-out: SPA-ATS GMean IC50 (nM) SF3B1 (WT)
T1 construct: endogenous in cells; host or cells: Nuclear extracts; A HeLa S3 extract preparation is described for the in vitro splicing assay
In short: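 SF3b complexes captured from nuclear extracts on anti-SF3B1 antibody SPA beads; test compounds pre-incubated 30 min before 2.5 nM [3H]-pladienolide probe added, then 30 min incubation. Bound probe read by scintillation; values from non-linear regression of concentration–response curves.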

[5] = Ad2.1 pre-mRNA substrate, read-out: qPCR-IVS-ATS GMean IC50 (nM) Ad2.1
[6] = Ad2.2 pre-mRNA substrate, read-out: qPCR-IVS-ATS GMean IC50 (nM) Ad2.2
[7] = PANC0504.1 cells, 72 h, −100% cidal, 0% static, 100% maximal growth
[8] = Panc 05.04, read-out: CTGlo-ATS GMean GI50 (nM) 72 h PANC0504.1, PANC0504.1 cells, 72 h
[9] = NCI-H1568, read-out: CTGlo-ATS GMean GI50 (nM) 72 h NCIH1568.1, NCIH1568.1 cells, 72 h
[10] = NCIH1568.1 cells, 72 h, −100% cidal, 0% static, 100% maximal growth
[11] = Panc 05.04, 72 h, read-out: CTGlo-ATS GMean GI50 (nM) 72 h PANC0504.1, PANC0504.1 cells, 72 h
[12] = NCI-H1568, 72 h, read-out: CTGlo-ATS GMean GI50 (nM) 72 h NCIH1568.1, NCIH1568.1 cells, 72 h
[13] = 72 h, PANC0504.1, -100% = cidal, 0% = static, 100% = uninhibited growth
[14] = Panc 05.04, read-out: CTGlo-ATS GMean GI50 (nM) 72 h PANC0504.1, 72 h, PANC0504.1
[15] = 72 h, NCIH1568.1, -100% = cidal, 0% = static, 100% = uninhibited growth
[16] = NCI-H1568, read-out: CTGlo-ATS GMean GI50 (nM) 72 h NCIH1568.1, 72 h, NCIH1568.1

| Compound | IC50 [1, 5] [nM] | IC50 [1, 6] [nM] | CTGlo-ATS Mean MinResponse % 72 h PANC0504.1 [2, 7] [%] | GI50 [2, 8] [nM] | GI50 [3, 9] [nM] | CTGlo-ATS Mean MinResponse % 72 h NCIH1568.1 [3, 10] [%] | IC50 [4] [nM] | GI50 [2, 11] [nM] | GI50 [3, 12] [nM] | Ratio Ad2.1/2.2 [1] | CTGlo-ATS Mean MinResponse % 72 h PANC0504.1 [2, 13] [%] | GI50 [2, 14] [nM] | CTGlo-ATS Mean MinResponse % 72 h NCIH1568.1 [3, 15] [%] | GI50 [3, 16] [nM] | GI50 ([2]; read-out: CTGlo-ATS GMean GI50 (nM) 72 h PANC0504.1, PANC0504.1 cells, 72 h) [nM] | GI50 ([3]; read-out: CTGlo-ATS GMean GI50 (nM) 72 h NCIH1568.1, NCIH1568.1 cells, 72 h) [nM] |
| --- | --- | --- | --- | --- | --- | --- | --- | --- | --- | --- | --- | --- | --- | --- | --- | --- |
| C/C(=C\c1cc(F)cc(N2CCN(C(=O)C3CC3)CC2)c1)[C@H]1OC(=O)C[C@H](O)CC[C@H](C)[C@@H](OC(=O)N2CCN(C)CC2)/C=C/[C@@H]1C [Compound 109] | 26.5 | 14 | −84.673 | 3.55 | 2 | −84.780 | 2.85 | – | – | – | – | – | – | – | – | – |
| C/C(=C\c1cc(F)cc(N2CCN(C(=O)CC3CC3)CC2)c1)[C@H]1OC(=O)C[C@H](O)CC[C@H](C)[C@@H](OC(=O)N2CCN(C)CC2)/C=C/[C@@H]1C [Compound 121] | 25.5 | 22 | −88.956 | 3.73 | 2.66 | −80.331 | 2.99 | – | – | – | – | – | – | – | – | – |
| C/C(=C\c1cc(F)cc(N2CCOCC2)c1)[C@H]1OC(=O)C[C@H](O)CC[C@H](C)[C@@H](OC(=O)N2CCN(C3CCC3)CC2)/C=C/[C@@H]1C [Compound 26] | 107 | 43.5 | −88.278 | – | – | −68.566 | 11.4 | 19 | 26.5 | – | – | – | – | – | – | – |
| C/C(=C\c1cc(F)cc(N2CCOCC2)c1)C1OC(=O)C[C@H](O)CC[C@H](C)[C@@H](OC(=O)N2CCN(C3CCOCC3)CC2)/C=C/[C@@H]1C (stereo partly drawn) [Compound 36] | 236 | 32.9 | −84.494 | – | – | −54.389 | 3.49 | 19 | 25.4 | – | – | – | – | – | – | – |
| C/C(=C\c1cc(F)cc(N2CC[C@H](NS(C)(=O)=O)C2)c1)[C@H]1OC(=O)C[C@H](O)CC[C@H](C)[C@@H](OC(=O)N2CCN(C)CC2)/C=C/[C@@H]1C [Compound 217, [(2S,3S,4E,6R,7S,10R)-2-[(E)-1-[3-fluoro-5-[(3S)-3-(methanesulfonamido)pyrrolidin-1-yl]phenyl]prop-1-en-2-yl]-10-hydroxy-3,7-dimethyl-12-oxo-1-oxacyclododec-4-en-6-yl] 4-methylpiperazine-1-carboxylate] | 18.4 | 16.6 | – | – | – | – | 3.18 | – | – | 1.107 | −91.288 | 15 | −71.339 | 13.8 | – | – |
| C/C(=C\c1cc(F)cc(N2CCOCC2)c1)[C@H]1OC(=O)C[C@H](O)CC[C@@](C)(O)C(OC(=O)N2CCN(C)CC2)/C=C/[C@@H]1C (stereo in doubt) [Compound 86, [(2S,3S,4E,6R,7R,10R)-2-[(E)-1-(3-fluoro-5-morpholin-4-ylphenyl)prop-1-en-2-yl]-7,10-dihydroxy-3,7-dimethyl-12-oxo-1-oxacyclododec-4-en-6-yl] 4-methylpiperazine-1-carboxylate] | 929 | 89.6 | −93.814 | – | – | −39.164 | 12.2 | – | – | – | – | – | – | – | 34.8 | 32.5 |
| C/C(=C\c1cc(F)cc(N2CCOCC2)c1)[C@H]1OC(=O)C[C@H](O)CC[C@H](C)[C@@H](OC(=O)N2CCN3CCCC3C2)/C=C/[C@@H]1C (stereo partly drawn) [Compound 82] | 68.6 | 28.2 | −88.044 | 8.74 | 12.2 | −60.656 | 3.79 | – | – | – | – | – | – | – | – | – |
| C/C(=C\c1cccc(S(=O)(=O)NC(C)(C)CO)c1)[C@H]1OC(=O)C[C@H](O)CC[C@H](C)[C@@H](OC(=O)N2CCN(C)CC2)/C=C/[C@@H]1C [Compound 201, [(2S,3S,4E,6R,7S,10R)-10-hydroxy-2-[(E)-1-[3-[(1-hydroxy-2-methylpropan-2-yl)sulfamoyl]phenyl]prop-1-en-2-yl]-3,7-dimethyl-12-oxo-1-oxacyclododec-4-en-6-yl] 4-methylpiperazine-1-carboxylate] | 620 | 17.5 | – | – | – | – | 5.64 | – | – | 35.485 | −91.697 | 40.9 | −48.055 | 27.5 | – | – |
| C/C(=C\c1cc(F)c2cn[nH]c2c1)[C@H]1OC(=O)C[C@H](O)CC[C@H](C)[C@@H](OC(=O)N2CCN(C)CC2)/C=C/[C@@H]1C [Compound 59] | 13600 | 46.1 | −95.512 | 17.5 | 14.5 | −44.526 | 2.75 | – | – | – | – | – | – | – | – | – |
| CNS(=O)(=O)c1cccc(/C=C(\C)[C@H]2OC(=O)CC(O)CCC(C)[C@@H](OC(=O)N3CCN(C)CC3)/C=C/[C@@H]2C)c1 (stereo in doubt) [Compound 212, [(2S,3S,4E,6R,7R,10S)-10-hydroxy-3,7-dimethyl-2-[(E)-1-[3-(methylsulfamoyl)phenyl]prop-1-en-2-yl]-12-oxo-1-oxacyclododec-4-en-6-yl] 4-methylpiperazine-1-carboxylate] | > 25000 | 93.8 | – | – | – | – | 8.79 | – | – | 266.536 | −59.089 | 60.2 | −49.302 | 129 | – | – |
| C/C(=C\c1cc(F)cc(N2CCOCC2)c1)[C@H]1OC(=O)C[C@H](O)CC[C@H](C)[C@@H](OC(=O)N2CCN(C(C)C)CC2)/C=C/[C@@H]1C [Compound 24] | 192 | 30.7 | −89.895 | 8.29 | 10.9 | −67.459 | 5.19 | – | – | – | – | – | – | – | – | – |
| C/C(=C\c1cc(F)cc(N2CCN(C#CF)C2=O)c1)[C@H]1OC(=O)C[C@H](O)CC[C@H](C)[C@@H](OC(=O)N2CCN(C)CC2)/C=C/[C@@H]1C [Compound 66] | 206 | 33.9 | −89.623 | 8.22 | 11.7 | −64.699 | 2.23 | – | – | – | – | – | – | – | – | – |
